Data taken from patent publication US20190099404A1, “ANALGESIC COMPOUNDS” (ZENO ROYALTIES & MILESTONES, LLC, priority 2016, published 2019).

Tested on: male ICR mice
Experiment: Formalin Paw Test
Type: in vivo
Conditions: 30 mg/kg, intraperitoneal, given 10 minutes before formalin; for Early Phase: early/acute phase (0-10 minutes) after 2% formalin in hind paw; for Late Phase: late/tonic phase (10-35 minutes) after 2% formalin in hind paw
Procedure: One test compound or the vehicle was administered to each mouse in each test group (8 mice per group). Non-fasted male ICR mice weighing 23±3 g were used. Test compounds were administered at a concentration of 30 mg/kg; morphine was administered at a concentration of 10 mg/kg; and acetaminophen was administered at a concentration of >100 mg/kg. The control group received the vehicle (5% DMSO/15% PEG400/10% HPbCD/0.9% Saline). After 10 minutes, a 2% formalin solution (0.02 mL) was injected into one hind paw (sub-plantar) of each mouse. Responses were measured every 5 minutes after the formalin injection for 35 minutes.
The results in Table A are for intraperitoneal administration. In Table A, ‘A’ designates <70 licks/sec, ‘B’ designates ≥70 licks/sec and <165 licks/sec, and ‘C’ designates ≥165 licks/sec.

Structure (SMILES) | Early Phase | Late Phase
CC(C)(C)c1ccc2nc(N)sc2c1 [Compound 10] | A (‘A’ designates <70 licks/sec) | A (‘A’ designates <70 licks/sec)
Nc1nc2ccc(C(F)(F)F)cc2s1 [Compound 6] | A (‘A’ designates <70 licks/sec) | A (‘A’ designates <70 licks/sec)
Nc1ccc2[nH]cnc2c1 [Compound 1] | B (‘B’ designates ≥70 licks/sec and <165 licks/sec) | C (‘C’ designates ≥165 licks/sec)
NCc1nc2cc(C(F)(F)F)ccc2s1 [Compound 5] | A (‘A’ designates <70 licks/sec) | A (‘A’ designates <70 licks/sec)
NCCc1nc2ccc(F)cc2[nH]1 [Compound 7] | B (‘B’ designates ≥70 licks/sec and <165 licks/sec) | A (‘A’ designates <70 licks/sec)
NCc1cc2cc(F)ccc2[nH]1 [Compound 4] | A (‘A’ designates <70 licks/sec) | A (‘A’ designates <70 licks/sec)
NCc1cc2ccccn2n1 [Compound 3] | A (‘A’ designates <70 licks/sec) | C (‘C’ designates ≥165 licks/sec)
NCc1nc2cc(F)ccc2[nH]1 [Compound 9] | A (‘A’ designates <70 licks/sec) | A (‘A’ designates <70 licks/sec)
Cn1ncc2cc(N)ccc21 [Compound 2] | A (‘A’ designates <70 licks/sec) | B (‘B’ designates ≥70 licks/sec and <165 licks/sec)
NCc1ccc2cncn2c1 [Compound 11] | B (‘B’ designates ≥70 licks/sec and <165 licks/sec) | C (‘C’ designates ≥165 licks/sec)
